Assay results as given in patent publication US6121252A, “Phosphinic acid derivatives” (priority 1998, dated 2000).
Each block holds one compound with its values, some of them ahead of it. Peptide text beside a SMILES is read from it.

Assays:
[1] = target: T1, NAALADase (Rattus norvegicus, UniProt P70627); assay: In vitro inhibition of NAALADase activity; type: biochemical
T1 construct: synaptosomal protein; from tissue; host or cells: synaptosomes (brain tissue)
Description: "Inhibition", in the context of enzymes, refers to reversible enzyme inhibition such as competitive, uncompetitive and non-competitive inhibition. Competitive, uncompetitive and non-competitive inhibition can be distinguished by the effects of an inhibitor on the reaction kinetics of an enzyme. […] The affinity between the inhibitor and the enzyme may be measured by the inhibitor constant, Ki, which is defined as: [formula] wherein [E] is the concentration of the enzyme, [I] is the concentration of the inhibitor, and [EI] is the concentration of the enzyme-inhibitor complex formed by the reaction of the enzyme with the inhibitor. Unless otherwise specified, Ki as used herein refers to the affinity between the inventive compounds and NAALADase.
Various compounds of formula I were tested for in vitro inhibition of NAALADase activity.
Substrate and product were resolved by anion-exchange liquid chromatography. […] Quisqualate (100 μM) was included in parallel assay tubes to confirm the specificity of the measurements.

[2] = tested on: cortical cell cultures; assay: In vitro ischemia assay (KCN/2-DG) in cortical cell cultures; type: cell-based, rat; conditions: Rattus norvegicus, 1 h, read-out: EC50 (50% reduction in glutamate toxicity following an ischemic insult); KCN/2-DG insult, compound during insult and one hour thereafter
[3] = tested on: LNCaP tumors; assay: In vivo LNCaP tumor model, subcutaneous Compounds 16, 17, 18; design: species or system ncr nude male mice; conditions: for tumor response (in words): 1 and 3 mg/kg s.c.
Experimental: Ncr nude male mice, age 5 to 6 weeks, were injected in the right flank with 5×10^6 LNCaP cells in Matrigel™ (0.1 ml total injection volume). Two weeks following cell injection, daily s.c. injections of Compound 16, Compound 17, and Compound 18 were initiated at the following doses: 1 and 3 mg/kg. Controls received 50 mM HEPES s.c. daily. Once tumors were palpable they were measured twice a week.
Response to treatment was monitored in two ways. First, mean tumor volume for each group was presented as tumor:control ratio (% T/C) and these values were compared at one point in time. Second, tumor volume versus time was monitored.

[4] = tested on: spinal cord organotypic cultures; assay: ALS model: ChAT activity of spinal cord organotypic cultures with THA; type: cell-based, rat; conditions: Rattus norvegicus, THA alone, 100 μM
Experimental: Organotypic cultures were prepared from lumbar spinal cord of 8 day old rats, as described by Rothstein et al., J. Neurochem., Vol. 65, No. 2 (1995), and Rothstein et al., Proc. Natl. Acad. Sci. USA, Vol. 90, pp. 6591-6595 (July 1993). In brief, lumbar spinal cords were removed and sliced into […]-thick-dorsal-ventral sections, and five slices were placed on Millipore CM semipermeable 30-mm-diameter membrane inserts. The inserts were placed on 1 ml of culture medium in 35-mm-diameter culture wells. Culture medium consisted of 50% minimal essential medium and phosphate-free HEPES (25 mM), 25% heat-inactivated horse serum, and 25 Hanks' balanced salt solution (GIBCO) supplemented with D-glucose (25.6 mg/ml) and glutamine (2 mM), at a final pH of 7.2. Antibiotic and antifungal agents were not used. Cultures were incubated at 37° C. in 5% CO2 containing humidified environment (Forma Scientific). Culture medium, along with any added pharmacological agents, was changed twice weekly.
Drugs were incubated for an additional 13 to 20 days with the 100 μM THA. At the end of this period, cultures were collected assayed for ChAT activity as described below.
To determine choline acetyltransferase (CHAT) activity, the spinal cord tissues in each dish (five slices) were pooled and frozen (-75° C.) until assay. CHAT activity was measured radiometrically by described methods using [^3 H]acetyl-CoA (Amersham; Fonnum, 1975). Protein content of tissue homogenate was determined by a Coomassi Protein Assay kit (Pierce, Rockford, Ill.).

[5] = tested on: dopaminergic neurons; assay: Parkinson's Disease model: MPTP lesioned mice; type: in vivo, CD1 mice
Experimental: To examine the effect of NAALADase inhibitors on Parkinson's Disease in vivo, MPTP lesioned mice were treated with 2-(phosphonomethyl)pentanedioicacid or a vehicle.
MPTP lesioning of dopaminergic neurons in mice was used as an animal model of Parkinson's Disease, as described by Steiner, Proc. Natl. Acad. Sci., Vol. 94, pp. 2019-2024 (March 1997). In brief, four week old male CD1 white mice were dosed IP with 30 mg/kg of MPTP for 5 days. […] At 18 days following MPTP treatment, the mice were sacrificed and their brains were removed and sectioned. Immunostaining was performed on saggital and coronal brain sections using anti-tyrosine hydroxylase (TH) antibodies to quantitate survival and recovery of dopaminergic neurons.

[6] = tested on: cortical cell cultures; assay: In vitro toxicity of NAAG in cortical cell cultures; type: cell-based; conditions: Rattus norvegicus, 20 min
Experimental: Experiments are performed after 21 days in cultures.
At the end of exposure, the cells are washed once with HEPES buffered saline solution and then replaced with serum free modified Earle's basal medium. The cultures are then returned to the CO2 incubator for 24 hour recovery.
This control measurement is subtracted from each experimental point.

T1 sequence (P70627 whole entry): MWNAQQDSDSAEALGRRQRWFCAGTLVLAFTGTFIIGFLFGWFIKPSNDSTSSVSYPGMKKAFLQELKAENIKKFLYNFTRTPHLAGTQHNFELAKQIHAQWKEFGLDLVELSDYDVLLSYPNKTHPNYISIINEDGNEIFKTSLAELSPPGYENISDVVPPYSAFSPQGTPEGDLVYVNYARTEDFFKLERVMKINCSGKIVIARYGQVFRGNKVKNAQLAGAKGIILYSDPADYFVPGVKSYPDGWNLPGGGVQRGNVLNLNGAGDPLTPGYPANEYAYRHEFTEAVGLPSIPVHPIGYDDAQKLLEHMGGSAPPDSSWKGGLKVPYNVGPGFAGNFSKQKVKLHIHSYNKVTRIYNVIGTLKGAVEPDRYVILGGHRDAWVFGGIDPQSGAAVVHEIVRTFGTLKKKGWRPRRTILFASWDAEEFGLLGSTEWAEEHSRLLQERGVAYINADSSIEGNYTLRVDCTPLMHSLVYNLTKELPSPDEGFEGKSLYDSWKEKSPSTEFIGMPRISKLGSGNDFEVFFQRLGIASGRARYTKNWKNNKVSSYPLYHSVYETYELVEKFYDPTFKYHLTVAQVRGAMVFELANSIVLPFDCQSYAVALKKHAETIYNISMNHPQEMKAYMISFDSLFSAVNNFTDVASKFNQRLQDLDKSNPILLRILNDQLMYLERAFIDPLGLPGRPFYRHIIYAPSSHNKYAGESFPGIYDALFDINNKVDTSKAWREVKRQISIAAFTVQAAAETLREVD

Ki [1]: 2000 nM
Compound: O=C(O)CCC(CP(=O)(O)C(NC(=O)O)c1ccccc1)C(=O)O (stereo not shown)

Ki [1]: 34.5 nM
Compound: O=C(O)CCC(CP(=O)(O)CN1C(=O)c2ccccc2C1=O)C(=O)O (stereo not shown)

Ki [1]: 90 nM
Compound: O=C(O)CCC(CP(=O)(O)CNS(=O)(=O)c1ccccc1)C(=O)O (stereo not shown)

Compound: O=C(O)CCC(CP(=O)(O)C(NCc1ccccc1)c1ccccc1)C(=O)O (stereo not shown)
EC50 [2]: 1 nM

Compound: O=C(O)CCC(CP(=O)(O)CNCc1ccccc1)C(=O)O (stereo not shown)
EC50 [2]: 0.9 nM

Compound: 2-[[[hydroxy(pyridyl)methyl]hydroxyphosphinyl]methyl]pentanedioic acid [Compound 18]
tumor size, % of control tumors ([3]; 1 mg/kg s.c.): 54 % of controls
tumor size, % of control tumors ([3]; 3 mg/kg s.c.): 58 % of controls
tumor response (in words) [3]: responded better

Compound: N[C@H](C(=O)O)[C@H](O)C(=O)O (relative stereo) [THA, threohydroxyaspartate]
activity at 100 µM [4]: 36 ± 12.1%

Compound: O=C(O)CCC(CP(=O)(O)Cc1c(F)c(F)c(F)c(F)c1F)C(=O)O (stereo not shown) [Compound 16, 2-[[(pentafluorobenzyl)hydroxyphosphinyl]methyl]pentanedioic acid]
tumor size, % of control tumors ([3]; 1 mg/kg s.c.): 78 % of controls
tumor size, % of control tumors ([3]; 3 mg/kg s.c.): 41.4 % of controls

Compound: O=C(O)CCC(CP(=O)(O)Cc1cccc(C(F)(F)F)c1)C(=O)O (stereo not shown) [Compound 17, 2-[[(3-trifluoromethylbenzyl)hydroxyphosphinyl]methyl]pentanedioic acid]
tumor size, % of control tumors ([3]; 1 mg/kg s.c.): 74.1 % of controls
tumor size, % of control tumors ([3]; 3 mg/kg s.c.): 82 % of controls
tumor response (in words) [3]: responded minimally

Compound: CN1CC=C(c2ccccc2)CC1 [MPTP]
loss of functional dopaminergic terminals ([5]; MPTP and vehicle vs non-lesioned mice): approximately 68%
Percent Striatal TH Innervation Density ([5]; MPTP/vehicle, mean ± SEM): 7.82 ± 0.68%

Compound: CC(=O)N[C@@H](CC(=O)O)C(=O)N[C@@H](CCC(=O)O)C(=O)O [NAAG, N-acetyl-aspartyl-glutamate] (Ac-Asp-Glu-OH)
cytotoxicity at 3 µM [6]: 3.51%
cytotoxicity at 10 µM [6]: 4.3 ± 3.12%
cytotoxicity at 30 µM [6]: 11.4 ± 6.17%
cytotoxicity at 100 µM [6]: 12.7 ± 5.5%
cytotoxicity at 300 µM [6]: 13.5 ± 4%
cytotoxicity at 1000 µM [6]: 21.5 ± 4.2%
cytotoxicity at 3000 µM [6]: 45.1 ± 4.96%

Ki [1]: 9 nM
Compound: O=C(O)CCC(CP(=O)(O)CNc1ccc(F)cc1)C(=O)O (stereo not shown) [drawing 29]

Ki [1]: 2.5 nM
Compound: COc1ccc(NCP(=O)(O)CC(CCC(=O)O)C(=O)O)cc1 (stereo not shown) [drawing 30]

Ki [1]: 5.2 nM
Compound: Cc1ccc(NCP(=O)(O)CC(CCC(=O)O)C(=O)O)cc1 (stereo not shown) [drawing 31]

Ki [1]: 2 nM
Compound: CC(C)(C)c1ccc(NCP(=O)(O)CC(CCC(=O)O)C(=O)O)cc1 (stereo not shown) [drawing 32]

Compound: O=C(O)CCC(CP(=O)(O)CNc1ccc(F)cc1)C(=O)O (stereo not shown) [drawing 39]
EC50 [2]: 3.1 nM

Compound: COc1ccc(NCP(=O)(O)CC(CCC(=O)O)C(=O)O)cc1 (stereo not shown) [drawing 40]
EC50 [2]: 9.5 nM

Compound: Cc1ccc(NCP(=O)(O)CC(CCC(=O)O)C(=O)O)cc1 (stereo not shown) [drawing 41]
EC50 [2]: 11.4 nM

Compound: CC(C)(C)c1ccc(NCP(=O)(O)CC(CCC(=O)O)C(=O)O)cc1 (stereo not shown) [drawing 42]
EC50 [2]: 34.6 nM
